From patent publication US20100292185A1, “BETA-LACTAMASE INHIBITORS” (priority 2009, published 2010)
Where a name gives a salt, the structure may show the parent alone. Read-outs that look alike come from different tables or passages of the source.

Columns and labels:
SHV-5 β-lactamase = molecular target: T1, SHV-5 β-lactamase (Klebsiella pneumoniae, UniProt P0A3M1); test: β-lactamase enzyme inhibition assay (nitrocefin substrate), SHV-5; type: biochemical
T1 construct: expressed as native untagged proteins; made in house; host or cells: E. coli BL21(DE3)
Summary of the method: (§1)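 Native untagged enzymes were expressed in E. coli BL21(DE3) and purified by cation exchange and gel filtration. Compounds (100–0.005 μM in PBS pH 7.0) were preincubated with enzyme for 10 min at 37 °C, then 100 μM nitrocefin (final) was added. IC50 was derived from the maximum hydrolysis rate at 486 nm, read kinetically for 10 min, relative to uninhibited controls.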

CTX-M15 β-lactamase = molecular target: T2, CTX-M15 β-lactamase (Escherichia coli, UniProt Q9EXV5); test: β-lactamase enzyme inhibition assay (nitrocefin substrate), CTXM-15; type: biochemical
T2 construct: expressed as native untagged proteins; made in house; host or cells: E. coli BL21(DE3)
Summary of the method: as §1

p99 AmpC β-lactamase = molecular target: T3, p99 AmpC β-lactamase (Enterobacter cloacae, UniProt P05364); test: β-lactamase enzyme inhibition assay (nitrocefin substrate), P99 AmpC; type: biochemical
T3 construct: expressed as native untagged proteins; made in house; host or cells: E. coli BL21(DE3)
Summary of the method: as §1

KPC-2 β-lactamase = molecular target: T4, KPC-2 β-lactamase (Klebsiella pneumoniae, UniProt Q9F663); test: β-lactamase enzyme inhibition assay (nitrocefin substrate), KPC-2; type: biochemical
T4 construct: expressed as native untagged proteins; made in house; host or cells: E. coli BL21(DE3)
Summary of the method: as §1

[1] = molecular target: T5, VIM-2 metallo β-lactamase (Pseudomonas aeruginosa, UniProt Q9K2N0); test: β-lactamase enzyme inhibition assay (nitrocefin substrate), VIM-2; type: biochemical; conditions: nitrocefin 100 μM, 37° C., PBS pH 7.0; read-out: VIM-2 IC50
T5 construct: made in house
Procedure: Isolation of β-lactamases. For SHV-5, p99 AmpC, KPC-2 and CTX-M15 β-lactamases, E. coli BL21(DE3) bacterial cells carrying expression plasmids (expressed as native untagged proteins) for the individual β-lactamases were grown in 1 L of Superbroth (Teknova Inc. Hollister, Calif.) supplemented with 100 μg/ml kanamycin and 1×5052 (0.5% glycerol, 0.05% glucose and 0.2% α-lactose) at 35° C. for 18-20 hours. Cells were harvested by centrifugation (4,000×g, 4° C., 20 min), and resuspended in 50 ml of 10 mM HEPES pH 7.5 (1/20 of the initial volume). The cells were lysed by sonication (5 pulses of 45 seconds) at 45 W on ice. The lysates were clarified by centrifugation at 10,000×g for 40 minutes at 4° C. Samples were diluted 5-fold in 50 mM sodium acetate pH 5.0, stored overnight at 4° C., after which they were centrifuged at 10,000×g for 30 minutes to clarify, and filtered through 0.45 μm filters. The samples were loaded onto a 5 ml Capto S sepharose cation exchange column (GE Healthcare) pre-equilibrated with 50 mM sodium acetate pH 5.0. The column was washed with 5 column volumes of 50 mM sodium acetate pH 5.0 to wash out unbound protein and a linear gradient of NaCl (0 to 500 mM) was used to elute the protein (over 16 CV) from the column. Fractions were assayed for β-lactamase activity using Centa (Calbiochem, Gibbstown, N.J.) as a reporter β-lactamase substrate for activity in the isolated fractions. Active fractions were pooled, concentrated and further purified by gel filtration chromatography on a Superdex 75 prep grade gel filtration column (GE Healthcare, Piscataway, N.J.) pre-equilibrated in 50 mM Hepes pH 7.5, 150 mM NaCl. Active fractions were pooled concentrated, quantitated by BCA protein determination (Thermo Scientific, Rockford, Ill.), and frozen at −80° C. in 20% glycerol until use.
For VIM-2 metallo (β-lactamase, the procedure was identical with the following exceptions: 1) the protein was not pH adjusted to pH 5 with 50 mM sodium acetate, 2) the chromatography step was changed to a 5 ml Q sepharose anion exchange column pre-equilibrated with 50 mM Hepes pH 7.5, and 3) elution of the protein was achieved by a linear gradient of NaCl (0-600 mM). Finally, the VIM-2 purification required a second run (3rd step) on the Q sepharose anion exchange column to achieve acceptable purity (>90%).
(§2) β-lactamase Inhibition. To determine the level of inhibition of β-lactamase enzymes, compounds were diluted in PBS at pH 7.0 to yield concentrations between 100 and 0.005 μM in microtiter plates. An equal volume of diluted enzyme stock was added, and the plates were incubated at 37° C. for 10 min. Nitrocefin solution was then dispensed as substrate into each well at a final concentration of 100 μM, and the plates were immediately read with the kinetic program at 486 nm for 10 min on the SPECTRAMAX® Plus^384 (high-throughput microplate spectrophotometer; Molecular Devices Corp., Sunnyvale, Calif.). Maximum rates of metabolism were then compared to those in control wells (without inhibitors), and percentages of enzyme inhibition were calculated for each concentration of inhibitor. The concentration of inhibitor needed to reduce the initial rate of hydrolysis of substrate by 50% (IC50) was calculated as the residual activity of β-lactamase at 486 nm using the SoftMax Pro 5.0 software (Molecular Devices Corp.).
Using the methodology described above, examples of the current invention were evaluated for their ability to inhibit β-lactamase enzymes. The results of these assays are summarized in Table 2 for representative enzymes across different subtypes (note SHV-5 and CTXM-15 exemplify different subclasses of Ambler Class A Extended Spectrum Beta Lactamases, KPC-2 exemplifies Class A carbapenemases, P99 represents chromosomal Class C AmpC, VIM-2 exemplifies subclass B1 of metallo-β-lactamases, and OXA-23 represents chromosome-encoded Class D oxacillin-hydrolyzing β-lactamases), NT=not tested.

OXA-23 β-lactamase = molecular target: T6, OXA-23 β-lactamase (Acinetobacter baumannii, UniProt Q9L4P2); test: β-lactamase enzyme inhibition assay (nitrocefin substrate), OXA-23 crude extract; type: biochemical; conditions: nitrocefin 100 μM, 37° C., PBS pH 7.0; read-out: OXA-23 IC50
T6 construct: crude β-lactamase extracts were prepared from 20 ml overnight cultures; endogenous in cells; host or cells: Acinetobacter baumannii cells containing OXA-23 (crude freeze-thaw extract)
Procedure: For OXA-23 β-lactamase, crude β-lactamase extracts were prepared from 20 ml overnight cultures with shaking. Acenitobacter baumanni cells containing OXA-23 were further diluted 10-fold and grown to mid-log phase (OD at 600 nm, 0.5-0.8) in Mueller-Hinton II (MH-II) broth at 37° C. The cells were pelleted at 5000 g, washed and resuspended in 2 mL PBS pH 7.0. The β-lactamases were extracted by four cycles of freezing and thawing followed by centrifugation. β-lactamase activity in the extracts was measured with the chromogenic cephalosporin nitrocefin. The amount of protein in each β-lactamase preparation was determined by the bicinchoninic acid (BCA) assay.
as §2

[2] = test system: E. coli expressing the Class A ESBL SHV-5; test: In vitro antibacterial assay of β-lactamase inhibition (broth microdilution MIC), E. coli SHV-5; type: cell-based
Summary of the method: (§3)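 MIC read by eye after 16-20 h at 37° C. Compounds were titrated 2-fold from 8 μg/mL down to 0.015 μg/mL (final) in CAMHB with a β-lactam antibiotic, and wells were inoculated per CLSI with strains grown 3-5 h under 50 μg/mL ampicillin.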

[3] = test system: K. pneumoniae expressing the Class A Extended Spectrum Beta-Lactamase (ESBL) CTX-M-15; test: In vitro antibacterial assay of β-lactamase inhibition (broth microdilution MIC), K. pneumoniae CTX-M-15; type: cell-based
Summary of the method: as §3

[4] = test system: E. cloacae expressing the Class C P99+; test: In vitro antibacterial assay of β-lactamase inhibition (broth microdilution MIC), E. cloacae P99+; type: cell-based
Summary of the method: as §3

[5] = test system: K. pneumoniae expressing the Class A carbapenemase KPC-2; test: microbe, parasite or virus in culture; type: cell-based
Summary of the method: as §3

[6] = test system: P. aeruginosa expressing the Class B metallo β-lactamase VIM-2; test: In vitro antibacterial assay of β-lactamase inhibition (broth microdilution MIC), P. aeruginosa VIM-2; type: cell-based; conditions: in presence of Ceftazidime 16 μg/mL (Examples 1-56)
Summary of the method: as §3

[7] = nitrocefin 100 μM, 37° C., PBS pH 7.0, read-out: P99 AmpC IC50
[8] = in presence of Ceftazidime 8 μg/ml (Examples 1-56)
[9] = in presence of Piperacillin 16 μg/ml (Examples 57-65)

T6 sequence (Q9L4P2 18-273): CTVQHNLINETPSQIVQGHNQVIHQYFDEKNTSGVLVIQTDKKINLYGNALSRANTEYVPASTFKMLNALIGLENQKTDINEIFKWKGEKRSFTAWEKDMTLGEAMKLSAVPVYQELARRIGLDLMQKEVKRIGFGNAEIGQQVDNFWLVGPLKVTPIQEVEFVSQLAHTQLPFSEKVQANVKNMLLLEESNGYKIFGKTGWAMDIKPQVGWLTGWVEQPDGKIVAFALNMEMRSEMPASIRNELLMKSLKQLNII
T4 sequence (Q9F663 25-293 limits assumed): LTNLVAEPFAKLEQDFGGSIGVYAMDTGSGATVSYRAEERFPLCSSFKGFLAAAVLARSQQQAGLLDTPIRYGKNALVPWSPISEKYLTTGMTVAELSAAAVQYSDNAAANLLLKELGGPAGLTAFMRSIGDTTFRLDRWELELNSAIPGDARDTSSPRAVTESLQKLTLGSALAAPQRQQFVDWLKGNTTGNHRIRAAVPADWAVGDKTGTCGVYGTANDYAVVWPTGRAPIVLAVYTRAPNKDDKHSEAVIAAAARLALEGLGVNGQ
T2 sequence (Q9EXV5 entry or part of it): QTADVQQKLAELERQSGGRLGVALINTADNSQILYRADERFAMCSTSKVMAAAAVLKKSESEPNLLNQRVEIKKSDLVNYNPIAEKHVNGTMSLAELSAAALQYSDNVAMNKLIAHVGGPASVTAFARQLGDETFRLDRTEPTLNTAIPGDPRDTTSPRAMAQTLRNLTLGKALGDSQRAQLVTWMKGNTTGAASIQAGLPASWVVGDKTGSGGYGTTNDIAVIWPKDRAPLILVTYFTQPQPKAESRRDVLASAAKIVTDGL
T3 sequence (P05364 21-381): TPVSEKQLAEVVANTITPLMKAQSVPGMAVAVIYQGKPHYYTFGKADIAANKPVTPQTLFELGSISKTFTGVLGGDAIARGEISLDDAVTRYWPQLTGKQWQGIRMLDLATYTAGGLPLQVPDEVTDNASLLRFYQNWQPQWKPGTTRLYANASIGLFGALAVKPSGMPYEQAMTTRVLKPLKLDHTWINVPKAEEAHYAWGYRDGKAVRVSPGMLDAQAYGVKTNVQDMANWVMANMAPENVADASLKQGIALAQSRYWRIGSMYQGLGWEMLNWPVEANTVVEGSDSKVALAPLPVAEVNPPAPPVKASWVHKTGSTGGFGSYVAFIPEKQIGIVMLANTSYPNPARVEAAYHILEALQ
T1 sequence (P0A3M1 22-286): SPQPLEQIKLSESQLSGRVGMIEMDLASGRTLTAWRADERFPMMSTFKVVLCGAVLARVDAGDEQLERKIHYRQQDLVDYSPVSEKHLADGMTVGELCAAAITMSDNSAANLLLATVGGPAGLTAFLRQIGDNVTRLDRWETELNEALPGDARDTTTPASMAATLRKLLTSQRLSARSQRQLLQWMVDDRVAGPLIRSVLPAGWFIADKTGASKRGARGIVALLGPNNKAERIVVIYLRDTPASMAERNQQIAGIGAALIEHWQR

| SMILES | IC50 (SHV-5 β-lactamase) | IC50 (CTX-M15 β-lactamase) | IC50 (p99 AmpC β-lactamase; [7]) | IC50 (KPC-2 β-lactamase) | IC50 [1] | IC50 (OXA-23 β-lactamase) | MIC of example compound, E. coli SHV-5 [2, 8] | MIC of example compound, K. pneumoniae CTX-M-15 [3, 8] | MIC of example compound, E. cloacae P99+ [4, 8] | MIC of example compound, K. pneumoniae KPC-2 [5, 8] | MIC of example compound, P. aeruginosa VIM-2 [6] | MIC of example compound, E. coli SHV-5 [2, 9] | MIC of example compound, K. pneumoniae CTX-M-15 [3, 9] | MIC of example compound, E. cloacae P99+ [4, 9] | MIC of example compound, K. pneumoniae KPC-2 [5, 9] | IC50 (p99 AmpC β-lactamase) |
| --- | --- | --- | --- | --- | --- | --- | --- | --- | --- | --- | --- | --- | --- | --- | --- | --- |
| NCc1cccc(C(=O)N[C@@H](Cc2cccc(C(=O)O)c2O)B(O)O)c1 [Example 1, 2(R)-3-[2-(3-(Aminomethyl)benzoylamino)-2-borono-ethyl]-2-hydroxy-benzoic acid hydrochloride] | 653 nM | 3 nM | 1 nM | 20 nM | 152 nM | 64 nM | 4 µg/mL | 1 µg/mL | 0.25 µg/mL | 0.125 µg/mL | 8 µg/mL | – | – | – | – | – |
| Cl.NCc1ccc(C(=O)N[C@@H](Cc2cccc(C(=O)O)c2O)B(O)O)cc1 [Example 2, 2(R)-3-[2-(4-(Aminomethyl)benzoylamino)-2-borono-ethyl]-2-hydroxy-benzoic acid hydrochloride] | > 1000 nM | 2 nM | 3 nM | 13 nM | 22 nM | > 1000 nM | 8 µg/mL | 2 µg/mL | 0.25 µg/mL | 0.015 µg/mL | 8 µg/mL | – | – | – | – | – |
| O=C(N[C@@H](Cc1cccc(C(=O)O)c1O)B(O)O)c1ccc(CN2CCOCC2)cc1 [Example 3, 2(R)-3-[2-(4-(Morpholinomethyl)benzoylamino)-2-borono-ethyl]-2-hydroxy-benzoic acid formate] | 367 nM | 4 nM | 3 nM | 14 nM | 850 nM | > 1000 nM | 8 µg/mL | 2 µg/mL | 4 µg/mL | 0.12 µg/mL | >8 µg/mL | – | – | – | – | – |
| Cl.Nc1cc(C(=O)N[C@@H](Cc2cccc(C(=O)O)c2O)B(O)O)ccn1 [Example 8, (2R)-3-{2-[(2-Amino-pyridine-4-carbonyl)-amino]-2-borono-ethyl}-2-hydroxy-benzoic acid] | 29 nM | 28 nM | 2 nM | 5 nM | 700 nM | 144 nM | 1 µg/mL | 0.5 µg/mL | 0.5 µg/mL | 0.06 µg/mL | – | – | – | – | – | – |
| O=C(Cc1ccc(CN2CCCC2)cc1)N[C@@H](Cc1cccc(C(=O)O)c1O)B(O)O [Example 38, (1R)-[2-(4-pyrrolin-1-ylmethyl-phenyl)-acetylamino]-(3-carboxy-2-hydroxy)benzyl-methylboronic acid formate] | 5 nM | 3 nM | 9 nM | 6 nM | 858 nM | 234 nM | 0.5 µg/mL | 0.25 µg/mL | 0.5 µg/mL | 0.03 µg/mL | – | – | – | – | – | – |
| Nc1cccc[n+]1Cc1ccc(CC(=O)N[C@@H](Cc2cccc(C(=O)O)c2O)B(O)O)cc1 [Example 40, (1R)-2-amino-(4-{[2-(3-carboxy-2-hydroxy-phenyl-borono-ethylcarbamoyl]-methyl}-benzyl)-pyridinium formate] | 20 nM | 4 nM | 10 nM | 653 nM | > 1000 nM | 132 nM | 0.25 µg/mL | 0.25 µg/mL | 2 µg/mL | – | >8 µg/mL | – | – | – | – | – |
| Cl.NCc1cc(CC(=O)N[C@@H](Cc2cccc(C(=O)O)c2O)B(O)O)ccn1 [Example 63, (2R)-3-{2-[(2-Aminomethyl-pyridin-4-yl-acetyl)-amino]-2-borono-ethyl}-2-hydroxy-benzoic acid hydrochloride] | 8 nM | 10 nM | 9 nM | 24 nM | 621 nM | 534 nM | – | – | – | – | – | 0.06 µg/mL | >16 µg/mL | 4 µg/mL | 0.125 µg/mL | – |
| N=C(N)NCc1cc(CC(=O)N[C@@H](Cc2cccc(C(=O)O)c2O)B(O)O)ccn1 [Example 64, (2R)-3-{2-[(2-Guanidinomethyl-pyridin-4-yl-acetyl)-amino]-2-borono-ethyl}-2-hydroxy-benzoic acid formate] | 3 nM | 3 nM | – | 17 nM | 548 nM | 177 nM | – | – | – | – | – | 0.125 µg/mL | >16 µg/mL | 4 µg/mL | 0.125 µg/mL | 8 nM |
